Legend:
[1] = for chelation of free calcium of MST-extract: 9.5 mM chelator in MST-extract
Protocol: The term “free” with regard to (1) calcium and (2) iron refers to (1) Ca^2+ and (2) Fe^2+ and/or Fe^3+, respectively. Determination of an amount of free iron and/or free calcium in smokeless tobacco can be made by first incubating the smokeless tobacco with any chelators that may be used for an appropriate amount of time (for example, one day), then separating extract by centrifugation with glass beads. […] Then, fifteen grams of Glass Beads (Kimble; 6 MM catalog # 13500-6) can be added to the Vectrospin™ tube containing the tobacco. The tube is preferably centrifuged at 2200 g for 20 minutes to recover tobacco extract. Free calcium and iron can be measured using the respective QuantiChrom™ assay kits (BioAssay Systems, Hayward, CA) according to the manufacturer’s instructions.

cells = assay: Cell death during cell wounding by washed MST, platform rocker exposure system; format: cell-based; settings: for cell death associated with MST-extract exposure during cell wounding: MST-extract containing 9.5 mM chelator, with washed MST, 30 minutes
Protocol: Cell death was measured immediately following treatment.
We then treated cells for 30 minutes with MST-extract/chelator preparations in the presence of washed MST using the platform exposure system and assessed cell death immediately following treatment.

Klebsiella pneumoniae = settings: cited from earlier work
HOK-16B cells [2] = assay: Morphologic assessment of necrotic/apoptotic cell death (Hema 3 staining); format: cell-based, human; settings: for protection from STE-induced cell death: TROLOX 20 µmol/L, L-ascorbic acid 50 µmol/L or deferoxamine 50 µmol/L, 30 min prior to STE, FIG. 1D
Protocol: (§1) Extracts of smokeless tobacco were prepared in cell growth medium as follows. One gram of reference smokeless tobacco was mixed with 10 ml of cell growth medium and placed on a shaker at 300 rpm and allowed to mix for 2 hours at 37° C. It was then centrifuged at 125 g for 10 minites at 4° C. The extracted supernatant was collected and centrifuged at 14,000 g for 1 hour at 4° C. The supernatant was filtered using a 0.22 µm filter, divided into aliquots, and immediately stored at -80° C. The extracted supernatant yielded a 100 mg/ml smokeless tobacco extract (STE) solution, which was serially diluted to obtain the doses of STE (1-100 mg/ml) used.
The primary HOK cells, isolated from human oral mucosa, were plated on poly-L-lysine coated plates at a density of 5 × 10^5 cells/well in a 12-well plate and cultured in keratinocyte medium at 37° C. in a humidified atmosphere containing 5% CO2 (v/v). HOK-16B cells were plated at a density of 5 × 10^5 cells/well in a 12-well plate and cultured in keratinocyte growth medium supplemented with 0.1 ng/ml epidermal growth factor, 5 µg/ml insulin, 30 µg/mlgentamicin, and 50 µg/mlamphoterecin at 37° C. in a humidified atmosphere containing 5% CO2 (v/v). The Het-1A cells were attached to plates pre-coated with LHC-9 medium supplemented with 0.01 mg/ml fibronectin, 0.03 mg/ml bovine collagen type I and 0.01 mg/ml bovine serum albumin for 1 hour, at a density of 5 × 10^5 cells/well in a 12-well plate and cultured in LHC-9 medium at 37° C. in a humidified atmosphere containing 5% CO2 (v/v). Unless otherwise indicated, cells were exposed to STE at 24 hours after plating.
Cells were treated with TROLOX (6-hydroxy-2,5,7,8-tetramethylchroman-2-carboxylic acid, a water-soluble derivative of vitamin E) at 20 µmol/L, L-ascorbic acid (50 µmol/L), or deferoxamine (50 µmol/L) 30 min prior to STE addition. Treatment was from a 10 mM stock solution of each agent, and the maximal concentration of vehicle [dimethyl sulfoxide (DMSO)] in culture medium was 0.01% (v/v). When possible, agents were diluted in appropriate cell culture medium (TROLOX, L-ascorbic acid, deferoxamine). Exposure to STE is expressed in terms of the amount of reference MST used to produce the total volume of STE [i.e., 100 mg/ml (w/v)]. The indicated concentrations of STE (1-100 mg/ml) exposure were chosen for these studies because they are within the reference range of previously cited works involving smokeless tobacco exposure (Bagchi et al., “Smokeless tobacco, oxidative stress, apoptosis, and antioxidants in human oral keratinocytes.: Free Radic. Biol. Med. 26, 992-1000 (1999); Mangipudy et al., “Role of nitric oxide in the induction of apoptosis by smokeless tobacco extract.” Mol Cell Biochem. 200, 51-57 (1999); and Petro, “Modulation of IL-12 p35 and p40 promoter activity by smokeless tobacco extract is associated with an effect upon activation of NF-kappaB but not IRF transcription factors.” Int. Immunopharmacol.
Morphologic assessment of viable cells and apoptotic and necrotic cell death was performed as follows. Cells were harvested 3 hours after STE exposure, unless otherwise noted, by treatment with trypsin-EDTA for approximately 5 minutes at 37° C. As some apoptotic cells detached from the culture substratum into the medium, these cells were also collected by centrifugation of the medium at 125 g for 5 minutes. […] Nuclear and total cellular morphology were evaluated. […]

HOK-16B cells [3] = assay: Intracellular ROS generation (DCFH-DA fluorescence) after STE exposure; format: cell-based, human; settings: TROLOX 20 µmol/L, L-ascorbic acid 50 µmol/L or deferoxamine 50 µmol/L, 30 min prior to STE addition; FIG. 1C
Protocol: as §1, with “used. […]” for “used.”
The intracellular generation of reactive oxygen species (ROS) was measured by using membrane permeable oxidation-sensitive fluorescent dye DCFH-DA. […] Fluorescence measurements were obtained 0 to 3 hours after STE addition, at the indicated concentrations, with a plate reader. Thirty minutes before the measurement of ROS in the plate reader, cells were incubated with DCFH-DA (25 µmol/L) or DMSO vehicle. The medium was then rapidly removed, the cells were washed in ice-cold phosphate-buffered saline and replaced with medium lacking dye, and the plate was placed into the plate reader. Data at each time point are presented corrected for basal fluorescence of vehicle-treated cells at the same time point. […]

Compound | chelation of free calcium of MST-extract [1] | cell death associated with MST-extract exposure during cell wounding (cells) | capsule production of Klebsiella pneumoniae (Klebsiella pneumoniae) | production of ROS induced by STE (HOK-16B cells [3]) | protection from STE-induced cell death (HOK-16B cells [2]) | also measured
O=C(O)CN(CCN(CC(=O)O)CC(=O)O)CC(=O)O [EDTA, ethylenediamine tetraacetic acid] | nearly all | reduced cell death | reduced capsule production |  |  | 
O=C(O)CN(CCOCCOCCN(CC(=O)O)CC(=O)O)CC(=O)O [EGTA, ethylene glycol tetraacetic acid] | nearly all | reduced cell death | reduced capsule production |  |  | free calcium levels in the high Ca2+ medium after chelator addition ([1]; 13.5 mM Ca2+ medium): less than 2 mM; cell death with chelator-treated high Ca2+ medium in combination with washed MST (cells; free calcium reduced to less than 2 mM): significantly reduced degree of cell death
[Cl][Fe]([Cl])[Cl] [FeCl3] |  |  |  |  |  | percent necrotic cell death after 3 hours (HOK-16B cells [2]; free iron 14 pM in cell culture medium without STE, 0 pM gave 4.9 ± 0.6%): 13.4 ± 1.0%; percent necrotic cell death after 3 hours (HOK-16B cells [2]; free iron 31 pM in cell culture medium without STE): 26.2 ± 3.5%; percent necrotic cell death after 3 hours (HOK-16B cells [2]; free iron 71 pM in cell culture medium without STE): 37.9 ± 4.5%
O=C1O[C@H]([C@@H](O)CO)C(O)=C1O [L-ascorbic acid] |  |  |  | completely suppressed | can protect against cell death | 
Cc1c(C)c2c(c(C)c1O)CCC(C)(C(=O)O)O2 (stereo not drawn) [TROLOX, 6-hydroxy-2,5,7,8-tetramethylchroman-2-carboxylic acid] |  |  |  | completely suppressed | can protect against cell death | 
